Measured values reported in patent US4788179A, “Method of treating amyotrophic lateral sclerosis with dipeptide derivatives and pharmaceutical compositions for use therein” (Gruenenthal GmbH, priority 1984, dated 1988).

How the values were obtained:
[1] = system: amyotrophic lateral sclerosis (ALS) patients; test: Clinical studies: treatment of ALS patients by infusion; format: in vivo, human
Procedure: The surprising activity of the compounds of formula I and of medicaments containing these ingredients in the treatment of ALS patients can be seen from the following examples of effects which resulted after administration of orotyl-L-histidyl-L-prolinamide in clinical studies. This active ingredient was filled in lyophilized form in 6 mg portions in bottles, closed with rubber stoppers, also containing 12 mg mannitol.
A patient with bulbar palsy caused by ALS was treated three times daily (at 4 hour intervals) on four consecutive days in form of short infusions (i.e. within 30 minutes) with the active ingredient. The total cumulative doses were on the first day 18 mg, on the second day 36 mg, on the third day 54 mg and on the fourth day 72 mg. The single doses for each infusion were dissolved in 100 ml of a sterile isotonic solution of sodium chloride.
Another ALS patient, suffering for eight months from ALS, was treated in the same manner as described above. […] For instance, they became able to lift their arms above horizontal, to walk without a stick, to climb stairs without support, and they became independent in activities of everyday life (such as shaving, washing, cutting with a knife, using a fork, writing, etc.).
Three other ALS patients, who had been ill for five, seven and twelve months, respectively, were each treated on four consecutive days three times daily with 24 mg of the active ingredient, dissolved in 5% aqueous glucose solution, by intravenous infusion, applied within 30 minutes. […] Again the observed side effects were insignificant and could be neglected.

[2] = system: amyotrophic lateral sclerosis (ALS) patients; test: as above; format: in vivo, human; remark: listed apart in the source
[3] = Example 3: three ALS patients, 24 mg three times daily, four days, intravenous infusion

## NC(=O)[C@@H]1CCCN1C(=O)[C@H](Cc1c[nH]cn1)NC(=O)c1cc(=O)[nH]c(=O)[nH]1 [orotyl-L-histidyl-L-prolinamide]
[1]; Example 1: one patient with bulbar palsy caused by ALS, short infusions (30 minutes) three times daily on four consecutive days, daily totals 18, 36, 54, 72 mg
  improvement in bulbar symptoms: remarkable improvements in the bulbar symptoms
[1]; Example 1: patient with bulbar palsy, four-day infusion treatment
  persistence of improvement after medication ended: remained for several days
[1]; Example 1: short infusions three times daily, four days, daily totals 18, 36, 54, 72 mg
  side effects of the treatment: insignificant
[1]; Example 2: four days therapy, same regimen as Example 1
  persistence of improvement after therapy finished: sustained for some days
[1]; Example 2: one patient suffering for eight months from ALS, same regimen as Example 1
  improvement in muscle weakness: striking improvement in muscle weakness
[1]; Example 3: three ALS patients, 24 mg three times daily on four consecutive days, intravenous infusion in 5% glucose within 30 minutes
  improvement in everyday motor abilities: Remarkable improvements were noted in using buttons and zippers and in the ability to walk without assistance
[1]; [3]
  clonic reflexes: changed to normal
  observed side effects: insignificant
  tendency to become fatigued: reduced
[2]; Example 4: one ALS patient with pronounced atrophy of the hand muscles, total 18 mg on one day (infusions of 6 mg at four hour intervals)
  effect on hand musculature: evident effect on the hand musculature
[2]; Example 4: total 18 mg on one day by infusion
  persistence of effect after ending of medication: remained for some time
